Laboratory results reported in paper PMC6718478, “A Comprehensive Antimicrobial Activity Evaluation of the Recombinant Microcin J25 Against the Foodborne Pathogens Salmonella and E. coli O157:H7 by Using a Matrix of Conditions” (Frontiers in Microbiology, 2019).
Positions of bridges follow the written chain, without caps; N, C: chain ends. Residues, ends and D or L forms follow the SMILES beside them.

Legend:
S. Pullorum [1] = assay: Live/Dead BacLight viability assay; assay type: cell-based, Salmonella Pullorum; settings: at the MIC level, 2 h at 37°C, 5 × 10^4 CFU/mL in LB; fluorescence microscopy
Description: (§1) A Live/Dead BacLight Bacterial Viability Kit 7 (Molecular Probes, Inc., Eugene) was used to test bacterial viability. Briefly, 5 × 10^4 CFU/mL S. Pullorum, S. Typhimurium, and E. coli O157:H7 were inoculated into 1 mL of LB containing recombinant MccJ25 at the MIC level specific for each pathogen. Bacterial cultures were incubated at 37°C for 2 h and then incubated in the dark at ambient temperature with SYTO 9 and propidium iodide for 15 min. Bacteria were observed using a fluorescence microscope (EVOS XL Cell Imaging System).

S. Typhimurium ATCC14082 = assay: Antimicrobial activity (killing) curves; assay type: cell-based, Salmonella Typhimurium; settings: 4 × MIC; log phase, ~5 × 10^4 CFU/mL in LB, 37°C; plate counts at 0, 2, 4, 6 h; n = 6
Description: To further address the activity of recombinant MccJ25, antimicrobial activity curves and Live/Dead viability assay were performed. A single colony of S. Pullorum CVCC1791, S. Typhimurium ATCC14082, and E. coli O157:H7 was inoculated into 5 mL of LB. The culture was then incubated at 37°C with shaking at 200 rpm overnight. The following day, the culture was diluted 1:100 in fresh LB and again incubated at 37°C with shaking at 200 rpm. For antimicrobial activity, the bacteria were grown until they reached log phase. Approximately 5 × 10^4 CFU/mL bacteria were inoculated into 2 mL of LB containing different concentrations of the recombinant MccJ25 (0, 1 × MIC, 2 × MIC, and 4 × MIC). The cultures (0.1 mL) were serially diluted with PBS and plated on LB and TSA agar at 0, 2, 4, and 6 h. The plates were incubated at 37°C overnight to count colony. Colonies were counted to determine CFU/mL. The experiment was conducted with two replicates in three independent trials.

S. Pullorum [2] = assay: TEM of morphology and intracellular alteration; assay type: cell-based, Salmonella Pullorum
Description: For TEM sample preparation, (1) two milliliters of 2 × 10^6 cells of S. Pullorum broth cultured in the absence or presence of 1×, 2× and 4× MIC of the recombinant MccJ25 were incubated and collected at 1 h. (2) After that, approximately 2 × 10^6 S. Pullorum cells were incubated at 37°C for […] with the recombinant MccJ25 at 2 × MIC for 2, 3, and 4 h. They were then centrifuged at 5,000 × g for 5 min. Pretreatment of bacterial samples was conducted in the same way as the SEM treatment. Finally, the samples were placed in capsules containing embedding medium and heated at 70°C for approximately 9 h. Specimens were stained with uranyl acetate and alkaline lead citrate for 15 min. They were then observed by TEM (Model JEM-1230, JEOL, Japan).

S. Typhimurium = assay: Antimicrobial activity in different growth phases, viable plate counting; assay type: cell-based, Salmonella Typhimurium; settings: LB, plate counts, n = 6; for time within which bacteria were killed: early and late-log phase cells
Description: The effect of growth phase on the anti-Salmonella and -E. coli O157:H7 activity of recombinant MccJ25 was determined by the viable plate counting method, as described previously ([Ma et al., 2016]; [Fan et al., 2017]), with minor modifications. Cultures of the strains in the early-log phase, late-log phase and stationary phase were washed, concentrated and diluted with sterilized phosphate-buffered saline (PBS) to approximately 10^7 CFU/mL. Then, 1 mL was incubated individually in 9 mL of PBS to reach an approximate 10^6 CFU/mL final concentration. The bacterial cells were then inoculated into 5 mL of LB containing different concentrations of MccJ25 (0, 1 × MIC, 2 × MIC, and 4 × MIC). At 0, 12, 24, and 48 h post incubation, the cultures (0.1 mL) were serially diluted with PBS and plated on LB and TSA agar. The plates were incubated at 37°C overnight to count colony. Colonies were counted to determine CFU/mL. The experiment was conducted with two replicates in three independent trials.

S. Pullorum [3] = assay: pH stability, inhibition zone read-out; assay type: physicochemical, Salmonella Pullorum; settings: pH 2.0 to 9.0 for 2 h; 150 μL of 1 × MIC; Oxford cup inhibition zone on LB agar, overnight 37°C; three replicate experiments
Description: Assays of the antibacterial activity of recombinant MccJ25 at different temperatures (25, 37, 45, 55, 65, 75, 85, and 95°C for 20 min) and different pH values (pH 2.0, 3.0, 4.0, 5.0, 6.0, 7.0, 8.0, and 9.0 for 2 h) were performed. The assays were conducted as described previously ([Chen et al., 2009]; [Meng et al., 2019]), with slight modifications. LB agar inoculated with the indicator bacteria S. Pullorum (approximately 10^5 viable cells per mL) was poured over plates fitted with Oxford cups to make wells. 150 μL of 1 × MIC final concentration of recombinant MccJ25 samples previously treated under various conditions were added to the wells. The agar overlays were incubated overnight at 37°C, and the inhibition zones were recorded.

E. coli O157:H7 [4] = assay: Antimicrobial activity in biological food products (skim milk, egg yolk, mincemeat extract); assay type: cell-based, Escherichia coli; settings: 4 × MIC, SKM, 37°C; for viable bacteria after 24 h in the three food products: SEY, SMS, data not shown
E. coli O157:H7 [5] = assay: Live/Dead BacLight viability assay; assay type: cell-based, Escherichia coli; settings: at the MIC level, 2 h at 37°C, 5 × 10^4 CFU/mL in LB; fluorescence microscopy
Description: as §1

ZO-1 = assay: Tight junction protein mRNA expression in Salmonella-challenged IPEC-J2 cells, real-time PCR; assay type: cell-based; settings: 6 h with recombinant MccJ25, then Salmonella for 2 h, n = 9
Description: (§2) IPEC-J2 cells were cultured with or without recombinant MccJ25 for 6 h and then treated with Salmonella for 2 h. Cells were collected, and relative mRNA expression was analyzed by real-time PCR. The data are the means ± SEMs of three independent experiments, n = 9. Different superscript lowercase letters within each group indicate significant differences (P < 0.05).

Claudin-1 = assay: as above; assay type: cell-based; settings: 6 h with recombinant MccJ25, then Salmonella for 2 h, n = 9
Description: as §2

CC[C@H](C)[C@H](NC(=O)CNC(=O)[C@@H](NC(=O)[C@H](Cc1ccccc1)NC(=O)[C@H](Cc1ccc(O)cc1)NC(=O)[C@@H]1CCC(=O)NCC(=O)NCC(=O)N[C@@H](C)C(=O)NCC(=O)N[C@@H](Cc2c[nH]cn2)C(=O)N[C@@H](C(C)C)C(=O)N2CCC[C@H]2C(=O)N1)C(C)C)C(=O)NCC(=O)N[C@H](C(=O)N1CCC[C@H]1C(=O)N[C@H](C(=O)N[C@@H](CO)C(=O)N[C@@H](Cc1ccccc1)C(=O)N[C@@H](Cc1ccc(O)cc1)C(=O)NCC(=O)O)[C@@H](C)CC)[C@@H](C)O [recombinant MccJ25, microcin J25] (GGAGHVPEYFVGIGTPISFYG-OH; lactam N-8 (inferred); C-terminus assumed)
bactericidal activity, Live/Dead staining (SYTO 9 / propidium iodide) (S. Pullorum [1]): excellent bactericidal activity | incubation time after which the pathogen was eliminated (killing curve) (S. Typhimurium ATCC14082): 6 h | cytoplasmic membrane integrity by TEM (S. Pullorum [2]; 1, 2, or 4 × MIC for 1 h, 2 × 10^6 cells): significantly disrupted the membrane | morphology and intracellular alteration by TEM (S. Pullorum [2]; 2 × MIC for 2, 3, and 4 h): deformed small septa, invisible cytoplasmic membranes, heterogeneous electron density, electron-light regions and thinned cell walls | time within which bacteria were killed (S. Typhimurium; 2 × MIC): ≤ 48 h | time within which bacteria were killed (S. Typhimurium; 4 × MIC): ≤ 24 h | time to reduction to non-detectable levels (S. Typhimurium; stationary phase cells, 4 × MIC): 48 h | effect of pH on activity against S. Pullorum (pH stability) (S. Pullorum [3]): no effect | viable bacteria after 24 h in the three food products (E. coli O157:H7 [4]; inoculum 10^3 CFU/mL): no viable bacteria were detected | viable bacteria after 24 h in the three food products (E. coli O157:H7 [4]; inoculum 10^4 CFU/mL): no bacteria were detected | CFU reduction after 24 h (E. coli O157:H7 [4]; SEY, and SMS, inoculum 10^6 CFU/mL, plate counts, n = 6): approximately 10^3 CFU/mL | bactericidal activity, Live/Dead staining (SYTO 9 / propidium iodide) (E. coli O157:H7 [5]): excellent bactericidal activity | mRNA expression of ZO-1 (ZO-1): significantly increased | mRNA expression of Claudin-1 (Claudin-1): significantly increased
